Patent US10709709B2, “Substituted carbonucleoside derivatives useful as anticancer agents” (Pfizer Inc., priority 2016, dated 2020)

Columns and labels:
[1] = target: PRMT5/MEP50 protein complex (Homo sapiens (Human), UniProt O14744); test: PRMT5 biochemical assay (3H-SAM methylation of H4(1-21) peptide, filter plate scintillation); settings: 10 nM PRMT5/MEP50 complex, 200 nM H4(1-21) peptide, 1 uM SAM, 25 minute incubation at room temperature
How it was run: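 Human PRMT5/MEP50 complex (10 nM) methylating H4(1-21) peptide (200 nM) with 3H/unlabelled SAM (1 uM final) in pH 8.5 Tris buffer, 25 min at room temperature. Stopped with TCA, 3H-peptide captured on filter plates and scintillation-counted. IC50 from 4-parameter fit.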

[2] = test system: A549 lung adenocarcinoma cells; test: A549 proliferation assay (Cell Titer Glo); type: cell-based; settings: Homo sapiens, A549, 168 h, 7 days with compound, cell viability by Cell Titer Glo (ATP)
Experimental: A549 lung adenocarcinoma cells (American Type Culture Collection) were maintained in DMEM growth media (Life Technologies) supplemented with 10% v/v heat inactivated fetal bovine serum (Sigma) and cultured at 37° C., 5% CO2. Exponentially growing A549 cells were plated in 96-well black tissue culture treated plates (Corning) at a density of […] in a volume of 100 μl culture media and allowed to adhere overnight at 37° C., 5% CO2. The following day, compound plates were prepared by making nine-point 3.3-fold dilutions in DMSO with a top concentration of 10 mM. Compounds were further diluted in culture media and 11 μl was added to the cells (final top assay concentration was 10 μM and DMSO was 0.2%). Cells were incubated with compound at 37° C., 5% CO2 for 7 days with media and compound replacement on day 4. Cell viability was assayed on Day 7 by adding 100 μl Cell Titer Glo (Promega) reagent to the plate to measure the amount of ATP present in the cells. Luminescence was read using the Envision 2104 Multilabel Reader (Perkin Elmer). The 50% inhibitory concentration (IC50) was determined using a 4-parameter fit model normalized to the DMSO control in dose response.

Sequence of PRMT5/MEP50 protein complex (O14744 other isoform, or with tags, fused parts or gaps): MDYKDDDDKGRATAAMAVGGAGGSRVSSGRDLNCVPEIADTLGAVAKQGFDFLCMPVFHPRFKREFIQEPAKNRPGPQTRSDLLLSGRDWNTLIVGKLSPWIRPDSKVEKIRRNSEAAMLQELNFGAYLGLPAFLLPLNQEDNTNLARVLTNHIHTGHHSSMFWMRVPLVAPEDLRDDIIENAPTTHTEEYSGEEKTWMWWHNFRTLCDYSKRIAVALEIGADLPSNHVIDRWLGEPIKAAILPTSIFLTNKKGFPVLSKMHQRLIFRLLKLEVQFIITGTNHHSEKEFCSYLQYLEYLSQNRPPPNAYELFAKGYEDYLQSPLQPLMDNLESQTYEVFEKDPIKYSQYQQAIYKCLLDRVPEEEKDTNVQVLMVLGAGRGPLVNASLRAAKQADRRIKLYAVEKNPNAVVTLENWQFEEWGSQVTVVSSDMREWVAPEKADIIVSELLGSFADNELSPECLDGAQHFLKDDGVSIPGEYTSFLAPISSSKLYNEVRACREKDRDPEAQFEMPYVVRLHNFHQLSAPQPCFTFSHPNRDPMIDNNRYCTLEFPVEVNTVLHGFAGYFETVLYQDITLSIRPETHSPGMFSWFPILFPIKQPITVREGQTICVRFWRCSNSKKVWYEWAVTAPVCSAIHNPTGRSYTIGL
Sequence of PRMT5/MEP50 protein complex (Q9BQA1 whole entry partner): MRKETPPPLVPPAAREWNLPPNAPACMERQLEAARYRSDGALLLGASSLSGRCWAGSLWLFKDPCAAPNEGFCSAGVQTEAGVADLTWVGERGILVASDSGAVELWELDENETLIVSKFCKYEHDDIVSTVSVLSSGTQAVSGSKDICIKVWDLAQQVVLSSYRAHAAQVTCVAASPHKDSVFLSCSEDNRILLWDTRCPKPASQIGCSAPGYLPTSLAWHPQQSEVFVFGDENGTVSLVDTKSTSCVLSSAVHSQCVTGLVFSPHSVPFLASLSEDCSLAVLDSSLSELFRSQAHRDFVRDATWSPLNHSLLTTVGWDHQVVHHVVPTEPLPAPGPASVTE

Row | SMILES | IC50 [1] [nM] | IC50 [2] [nM]
1 | Cc1ncnc2c1ccn2[C@@H]1C[C@H](Oc2cccc3c2CNCC3)[C@@H](O)[C@H]1O [Example 78, (1S,2S,3R,5S)-3-(4-methyl-7H-pyrrolo[2,3-d]pyrimidin-7-yl)-5-((1,2,3,4-tetrahydroisoquinolin-8-yl)oxy)cyclopentane-1,2-diol] | 1 | 1620
2 | Cc1ncnc2c1ccn2[C@@H]1C[C@H](Oc2ccc(F)c3c2CNCC3)[C@@H](O)[C@H]1O [Example 84, (1S,2S,3S,5R)-3-((5-fluoro-1,2,3,4-tetrahydroisoquinolin-8-yl)oxy)-5-(4-methyl-7H-pyrrolo[2,3-d]pyrimidin-7-yl)cyclopentane-1,2-diol] | 2 | 500
3 | Cc1ncnc2c1ccn2[C@@H]1C[C@H](Oc2cc(F)cc3c2CNCC3)[C@@H](O)[C@H]1O [Example 85, (1S,2S,3S,5R)-3-((6-fluoro-1,2,3,4-tetrahydroisoquinolin-8-yl)oxy)-5-(4-methyl-7H-pyrrolo[2,3-d]pyrimidin-7-yl)cyclopentane-1,2-diol] | 2 | 920
4 | Cc1cc2c(c(O[C@H]3C[C@@H](n4ccc5c(C)ncnc54)[C@H](O)[C@@H]3O)c1)CNCC2 [Example 88, (1S,2S,3R,5S)-3-(4-methyl-7H-pyrrolo[2;3-d]pyrimidin-7-yl)-5-[(6-methyl-1,2,3,4-tetrahydroisoquinolin-8-yl)oxy]cyclopentane-1,2-diol] | 1 | 545
5 | Cc1ncnc2c1ccn2[C@@H]1C[C@H](Oc2cc(C#N)cc3c2CNCC3)[C@@H](O)[C@H]1O [Example 91, 8-(((1S,2S,3S,4R)-2,3-dihydroxy-4-(4-methyl-7H-pyrrolo[2,3-d]pyrimidin-7-yl)cyclopentyl)oxy)-1,2,3,4-tetrahydroisoquinoline-6-carbonitrile] | 1 | 119
6 | Cc1ncnc2c1ccn2[C@@H]1C[C@H](Oc2cc(F)c(F)c3c2CNCC3)[C@@H](O)[C@H]1O [Example 92, (1S,2S,3S,5R)-3-((5,6-difluoro-1,2,3,4-tetrahydroisoquinolin-8-yl)oxy)-5-(4-methyl-7H-pyrrolo[2,3-d]pyrimidin-7-yl)cyclopentane-1,2-diol] | 1 | 312
7 | Cc1ncnc2c1ccn2[C@@H]1C[C@H](Oc2cc(Br)c(F)c3c2CNCC3)[C@@H](O)[C@H]1O [Example 94, (1S,2S,3S,5R)-3-((6-bromo-5-fluoro-1,2,3,4-tetrahydroisoquinolin-8-yl)oxy)-5-(4-methyl-7H-pyrrolo[2,3-d]pyrimidin-7-yl)cyclopentane-1,2-diol] | 1 | 115
8 | Cc1ncnc2c1ccn2[C@@H]1C[C@H](Oc2cncc3c2CNCC3)[C@@H](O)[C@H]1O [Example 95, (1S,2S,3R,5S)-3-(4-methyl-7H-pyrrolo[2,3-d]pyrimidin-7-yl)-5-((5,6,7,8-tetrahydro-2,6-naphthyridin-4-yl)oxy)cyclopentane-1,2-diol] | 6 | 8130
9 | Cc1ncnc2c1ccn2[C@@H]1C[C@H](Oc2ccc(I)c3c2CNCC3)[C@@H](O)[C@H]1O [Example 98, (1S,2S,3S,5R)-3-((5-iodo-1,2,3,4-tetrahydroisoquinolin-8-yl)oxy)-5-(4-methyl-7H-pyrrolo[2,3-d]pyrimidin-7-yl)cyclopentane-1,2-diol] | 11 | 1490
10 | Nc1ncnc2c1c(F)cn2[C@@H]1C[C@H](Oc2cccc3c2CNCC3)[C@@H](O)[C@H]1O [Example 99, (1S,2S,3R,5S)-3-(4-amino-5-fluoro-7H-pyrrolo[2,3-d]pyrimidin-7-yl)-5-((1,2,3,4-tetrahydroisoquinolin-8-yl)oxy)cyclopentane-1,2-diol] | 2 | 728
11 | Nc1ncnc2c1c(F)cn2[C@@H]1C[C@H](Oc2ccc(F)c3c2CNCC3)[C@@H](O)[C@H]1O [Example 100, (1S,2S,3R,5S)-3-(4-amino-5-fluoro-7H-pyrrolo[2,3-d]pyrimidin-7-yl)-5-((5-fluoro-1,2,3,4-tetrahydroisoquinolin-8-yl)oxy)cyclopentane-1,2-diol] | 1 | 185
12 | Nc1ncnc2c1c(F)cn2[C@@H]1C[C@H](Oc2cc(Br)cc3c2CNCC3)[C@@H](O)[C@H]1O [Example 101, (1S,2S,3R,5S)-3-(4-amino-5-fluoro-7H-pyrrolo[2,3-d]pyrimidin-7-yl)-5-((6-bromo-1,2,3,4-tetrahydroisoquinolin-8-yl)oxy)cyclopentane-1,2-diol] | 1 | 112
13 | Nc1ncnc2c1c(F)cn2[C@@H]1C[C@H](Oc2cc(F)c(F)c3c2CNCC3)[C@@H](O)[C@H]1O [Example 103, (1S,2S,3R,5S)-3-(4-amino-5-fluoro-7H-pyrrolo[2,3-d]pyrimidin-7-yl)-5-((5,6-difluoro-1,2,3,4-tetrahydroisoquinolin-8-yl)oxy)cyclopentane-1,2-diol] | 1 | 201
14 | Nc1ncnc2c1c(F)cn2[C@@H]1C[C@H](Oc2cc(C(F)(F)F)cc3c2CNCC3)[C@@H](O)[C@H]1O [Example 104, (1S,2S,3R,5S)-3-(4-amino-5-fluoro-7H-pyrrolo[2,3-d]pyrimidin-7-yl)-5-((6-(trifluoromethyl)-1,2,3,4-tetrahydroisoquinolin-8-yl)oxy)cyclopentane-1,2-diol] | 1 | 460
15 | Nc1ncnc2c1c(F)cn2[C@@H]1C[C@H](Oc2cc(Cl)c(F)c3c2CNCC3)[C@@H](O)[C@H]1O [Example 108, (1S,2S,3R,5S)-3-(4-amino-5-fluoro-7H-pyrrolo[2,3-d]pyrimidin-7-yl)-5-((6-chloro-5-fluoro-1,2,3,4-tetrahydroisoquinolin-8-yl)oxy)cyclopentane-1,2-diol] | 1 | 163

More lines, in order of falling IC50 [1], values ahead:

Row | IC50 [1] [nM] | IC50 [2] [nM] | SMILES
16 | 4 | 1840 | Cc1ncnc2c1ccn2[C@@H]1C[C@H](Oc2ccc(Cl)c3c2CNCC3)[C@@H](O)[C@H]1O [Example 86, (1S,2S,3S,5R)-3-((5-chloro-1,2,3,4-tetrahydroisoquinolin-8-yl)oxy)-5-(4-methyl-7H-pyrrolo[2,3-d]pyrimidin-7-yl)cyclopentane-1,2-diol]
17 | 2 | 296 | Cc1ncnc2c1ccn2[C@@H]1C[C@H](Oc2cc(Cl)cc3c2CNCC3)[C@@H](O)[C@H]1O [Example 87, (1S,2S,3S,5R)-3-((6-chloro-1,2,3,4-tetrahydroisoquinolin-8-yl)oxy)-5-(4-methyl-7H-pyrrolo[2,3-d]pyrimidin-7-yl)cyclopentane-1,2-diol]
18 | 2 | 948 | Cc1ncnc2c1ccn2[C@@H]1C[C@H](Oc2cc(C(F)(F)F)cc3c2CNCC3)[C@@H](O)[C@H]1O [Example 90, (1S,2S,3R,5S)-3-(4-methyl-7H-pyrrolo[2,3-d]pyrimidin-7-yl)-5-((6-(trifluoromethyl)-1,2,3,4-tetrahydroisoquinolin-8-yl)oxy)cyclopentane-1,2-diol]
19 | 2 | 3850 | CCc1cc2c(c(O[C@H]3C[C@@H](n4cc(F)c5c(N)ncnc54)[C@H](O)[C@@H]3O)c1)CNCC2 [Example 106, (1S,2S,3R,5S)-3-(4-amino-5-fluoro-7H-pyrrolo[2,3-d]pyrimidin-7-yl)-5-((6-ethyl-1,2,3,4-tetrahydroisoquinolin-8-yl)oxy)cyclopentane-1,2-diol]
20 | 1 | 195 | Cc1ncnc2c1ccn2[C@@H]1C[C@H](Oc2cc(Br)cc3c2CNCC3)[C@@H](O)[C@H]1O [Example 89, (1S,2S,3S,5R)-3-((6-bromo-1,2,3,4-tetrahydroisoquinolin-8-yl)oxy)-5-(4-methyl-7H-pyrrolo[2,3-d]pyrimidin-7-yl)cyclopentane-1,2-diol]
21 | 1 | 140 | Cc1ncnc2c1ccn2[C@@H]1C[C@H](Oc2cc(Cl)c(F)c3c2CNCC3)[C@@H](O)[C@H]1O [Example 93, (1S,2S,3S,5R)-3-((6-chloro-5-fluoro-1,2,3,4-tetrahydroisoquinolin-8-yl)oxy)-5-(4-methyl-7H-pyrrolo[2,3-d]pyrimidin-7-yl)cyclopentane-1,2-diol]
22 | 1 | 192 | Nc1ncnc2c1c(F)cn2[C@@H]1C[C@H](Oc2cc(Cl)cc3c2CNCC3)[C@@H](O)[C@H]1O [Example 102, (1S,2S,3R,5S)-3-(4-amino-5-fluoro-7H-pyrrolo[2,3-d]pyrimidin-7-yl)-5-((6-chloro-1,2,3,4-tetrahydroisoquinolin-8-yl)oxy)cyclopentane-1,2-diol]
23 | 1 | 383 | Cc1cc2c(c(O[C@H]3C[C@@H](n4cc(F)c5c(N)ncnc54)[C@H](O)[C@@H]3O)c1)CNCC2 [Example 105, (1S,2S,3R,5S)-3-(4-amino-5-fluoro-7H-pyrrolo[2,3-d]pyrimidin-7-yl)-5-((6-methyl-1,2,3,4-tetrahydroisoquinolin-8-yl)oxy)cyclopentane-1,2-diol]
24 | 1 | 991 | Nc1ncnc2c1c(F)cn2[C@@H]1C[C@H](Oc2cc(F)cc3c2CNCC3)[C@@H](O)[C@H]1O [Example 107, (1S,2S,3R,5S)-3-(4-amino-5-fluoro-7H-pyrrolo[2,3-d]pyrimidin-7-yl)-5-((6-fluoro-1,2,3,4-tetrahydroisoquinolin-8-yl)oxy)cyclopentane-1,2-diol]
